Measurements taken from publication PMC9814091, “The making of a potent L-lactate transport inhibitor” (Communications Chemistry, 2021).
Like-named read-outs stand apart in the source and are kept apart here.

Key:
SfMCT [1] = molecular target: T1, SfMCT (Syntrophobacter fumaroxidans, UniProt A0LNN5); test: cell-based; assay type: cell-based; settings: for times more potent than BA (starting compound): ratio of Ki values versus BA
T1 construct: expressed in transfected cells; host or cells: E. coli JA202 (MC4100 glcA::cat lldP::kan) transformed with pEXT20-SfMCT-3C-10His
T1 sequence (A0LNN5 1-412): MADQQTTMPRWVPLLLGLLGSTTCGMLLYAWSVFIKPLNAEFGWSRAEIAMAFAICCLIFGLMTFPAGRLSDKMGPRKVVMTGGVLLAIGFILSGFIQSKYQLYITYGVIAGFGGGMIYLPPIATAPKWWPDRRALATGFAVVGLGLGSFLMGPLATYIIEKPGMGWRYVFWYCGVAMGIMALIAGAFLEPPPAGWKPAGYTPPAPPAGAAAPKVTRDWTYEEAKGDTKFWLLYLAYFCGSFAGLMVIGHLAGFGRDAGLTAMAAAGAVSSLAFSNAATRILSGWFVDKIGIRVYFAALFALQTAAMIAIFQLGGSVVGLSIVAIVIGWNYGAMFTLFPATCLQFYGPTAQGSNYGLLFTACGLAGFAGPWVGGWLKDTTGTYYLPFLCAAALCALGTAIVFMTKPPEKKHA
Excerpt: The previously characterized ligand binding site provides space to accommodate molecules that are larger than TSA. […] Only molecules containing one carboxylate-group were considered (i.e., monocarboxylates) as R280 (TM8) is the only positively-charged residue in the ligand binding site region. […] The binding site also contains hydrophobic and aromatic residues, which can be involved in hydrophobic and π-stacking interactions with bound molecules. Therefore, the focus of the screen was set on aromatic monocarboxylates, which are summarized in Supplementary Fig. 1. To evaluate the inhibitory effect of the selected molecules, an inhibition assay was set up where the transport of [^14C]L-lactate through SfMCT was measured in the absence and presence of different inhibitors at decreasing concentrations. In a first step, the inhibitory effects of BA, as well as hydroxylated and methylated BA derivatives on L-lactate transport, were investigated at a concentration of 500 µM (Fig. 1A, red).
(§1) Uptake experiments were done as described previously[6],[40]. Overnight precultures of E. coli JA202 (MC4100 glcA::cat lldP::kan)[42], which were transformed with a plasmid carrying SfMCT (pEXT20-SfMCT-3C-10His), were diluted 1:200 into LB-medium supplemented with 100 μg/ml ampicillin. Cultures were grown at 37 °C and 180 r.p.m. in an incubator shaker (Multitron, Infors HT). At OD600 ~0.5, isopropyl-β-D-thiogalactopyranoside was added to the culture to a final concentration of 250 µM to induce SfMCT expression. In the case of E. coli MC4100 (DSM 6574, German Collection of Microorganisms and Cell Cultures), an overnight preculture was diluted 1:200 into LB-medium supplemented with 50 μg/ml streptomycin and grown at 37 °C and 180 r.p.m. in an incubator shaker (Multitron, Infors HT). Bacteria were harvested 4 h post-induction (E. coli JA202) or 6 h post-inoculation (E. coli MC4100) (5200 × g, 10 min, room temperature). The supernatant was discarded and the bacteria were gently resuspended in uptake buffer (20 mM Bis-Tris propane-HCl (pH 6.7), 250 mM KCl). The density of the bacteria suspension was adjusted to OD600 12. Transport experiments were done in a reaction volume of 50 µl, which consisted of 20 µl cell-suspension (2.4 × 10^8 bacteria), 10 µl substrate master mix (67 µM sodium L-lactate spiked with [14C(U)] L-lactic acid sodium salt ([^14C]L-lactate, American Radiolabeled Chemicals) to a specific activity of 0.15 Ci/mmol) and 20 µl monocarboxylate inhibitor solution. […] All monocarboxylate inhibitors were purchased from Merck (i.e., SigmaAldrich) with the exception of 6-methyl-salicylate (6MSA) that was purchased from Fluorochem. Uptake experiments were performed in 2 ml reaction tubes (Eppendorf) at 30 °C under agitation (1000 r.p.m., Thermomixer compact, Eppendorf). After 30 min, reactions were stopped by adding 900 μl stop buffer (20 mM HEPES-NaOH (pH 7.5), 150 mM NaCl) followed by centrifugation (21,000 × g, 4 min, room temperature). Pelleted bacteria were then washed two times with 900 μl stop buffer to remove free radioligand. Finally, bacteria were lysed using 50 μl 5% (w/v) sodium dodecylsulfate and transferred into a 96-well plate (Optiplate, PerkinElmer). 150 µl scintillation cocktail (MicroScint 40, PerkinElmer) were added to each well before measuring each well for 2 min with a scintillation counter (TopCount NXT, PerkinElmer). For data analysis Prism6 (GraphPad Software) was used.

[2] = test system: E. coli L-lactate permeases (i.e., LldP and GlcA); test: [14C]L-lactate transport into E. coli MC4100 (test for a protonophoric effect); assay type: cell-based; settings: 100 µM compound
SfMCT Y331F mutant = molecular target: T2, SfMCT Y331F mutant (Syntrophobacter fumaroxidans, UniProt A0LNN5, Y331F); assay type: cell-based; settings: 25 µM 1OHN2C; 10 µM N2C, 3PP, 2M3PP
T2 construct: expressed in transfected cells; host or cells: E. coli JA202 (inferred: same uptake protocol as wild type)
T2 sequence (A0LNN5 whole entry Y331F): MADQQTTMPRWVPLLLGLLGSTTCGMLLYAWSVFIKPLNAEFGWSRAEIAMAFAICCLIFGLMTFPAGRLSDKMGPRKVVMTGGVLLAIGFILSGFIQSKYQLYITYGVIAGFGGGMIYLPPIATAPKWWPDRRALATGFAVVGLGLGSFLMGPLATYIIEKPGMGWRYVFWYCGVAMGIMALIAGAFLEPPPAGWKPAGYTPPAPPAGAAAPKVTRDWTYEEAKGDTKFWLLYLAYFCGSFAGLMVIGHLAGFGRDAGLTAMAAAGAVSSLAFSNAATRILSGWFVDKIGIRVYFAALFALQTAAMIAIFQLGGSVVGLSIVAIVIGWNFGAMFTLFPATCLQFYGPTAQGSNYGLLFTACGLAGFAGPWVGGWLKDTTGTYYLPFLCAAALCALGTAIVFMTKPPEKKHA
Method: as §1, with “Finally, bacteria were lysed using 50 μl 5% (w/v) sodium dodecylsulfate and transferred into a 96-well plate (Optiplate, PerkinElmer). 150 µl scintillation cocktail (MicroScint 40, PerkinElmer) were added to each well before measuring each well for 2 min with a scintillation counter (TopCount NXT, PerkinElmer). For data analysis Prism6 (GraphPad Software) was used.” left out

SfMCT [3] = molecular target: T1, SfMCT; test: Transport assay with radiolabeled monocarboxylates as potential SfMCT substrates; assay type: cell-based; settings: 40 µM 14C-labeled compound, 0.1 µCi per reaction
SfMCT [4] = molecular target: T1, SfMCT; parameters: method as in PMID 31201333; settings: cited from earlier work
[5] = inhibitor 25 µM, naphthoate derivatives (Fig. 1A, orange)
[6] = [14C]L-lactate uptake, SfMCT-expressing E. coli JA202, pH 6.7, 30 °C, 30 min, read-out: Ki (inhibition of L-lactate transport)
[7] = inhibitor 10 µM, hydroxylated and methylated 3PP derivatives (Fig. 1A, magenta)
[8] = inhibitor 100 µM, methylated SA derivatives and 3OH4MBA (Fig. 1A, blue)
[9] = inhibitor 500 µM, BA and hydroxylated and methylated BA derivatives (Fig. 1A, red)

SMILES: O=C(O)c1ccc2ccccc2c1O [1OHN2C, 1-hydroxy-2-naphthoate]
- Ki (SfMCT [1]): 16.2 µM
- inhibitory effect on L-lactate transport in the screen (SfMCT [1]; [5]): strongest reduction of L-lactate transport among the tested naphthoate derivatives
- effect on [14C]L-lactate transport activity of E. coli MC4100 [2]: no significant reduction
- reduction of L-lactate transport inhibition by the Y331F mutation versus wild type (SfMCT Y331F mutant): ~ 2 fold

SMILES: Cc1ccccc1CCC(=O)O [2M3PP, 3-(2-methylphenyl)-propionate]
- Ki (SfMCT [1]; [6]): 0.469 µM
- inhibitory effect on L-lactate transport in the screen (SfMCT [1]; [7]): strongest inhibitory effect on L-lactate transport among the tested methylated derivatives
- times more potent than BA (starting compound) (SfMCT [1]): ~1000 times
- effect on [14C]L-lactate transport activity of E. coli MC4100 [2]: no significant reduction
- reduction of L-lactate transport inhibition by the Y331F mutation versus wild type (SfMCT Y331F mutant): ~ 2 fold

SMILES: O=C(O)CCc1cccc(O)c1 [3OH3PP, 3-(3-hydroxyphenyl)-propionate]
- inhibitory effect on L-lactate transport in the screen (SfMCT [1]; [7]): strongest L-lactate transport reduction among the tested hydroxylated derivatives

SMILES: Cc1ccc(C(=O)O)cc1O [3OH4MBA, 3-hydroxy-4-methyl-benzoate]
- inhibitory effect on L-lactate transport in the screen (SfMCT [1]; [8]): strongly reduced inhibition of L-lactate transport

SMILES: O=C(O)CCc1ccccc1 [3PP, 3-phenylpropionate]
- Ki (SfMCT [1]): 0.812 µM
- inhibitory effect on L-lactate transport in the molecular ruler experiment (SfMCT [1]; BA, PA, 3PP and 4PB compared (Fig. 1A, black)): most potent inhibitor
- times more potent than BA (starting compound) (SfMCT [1]): ~ 530 times
- effect on [14C]L-lactate transport activity of E. coli MC4100 [2]: no significant reduction
- transport of the radiolabeled compound by SfMCT (SfMCT [3]): does not transport

SMILES: Cc1ccc(C(=O)O)cc1 [4MBA, 4-methyl-benzoate]
- Ki (SfMCT [1]): 13.4 µM
- inhibitory effect on L-lactate transport in the screen (SfMCT [1]; [9]): strongest reduction of L-lactate transport activity
- times more potent than BA (starting compound) (SfMCT [1]): ~ 30 times

SMILES: Cc1ccc(C(=O)O)c(O)c1 [4MSA, 4-methyl-salicylate]
- Ki (SfMCT [1]): 24.4 µM
- inhibitory effect on L-lactate transport in the screen (SfMCT [1]; [8]): strongest reduction of L-lactate transport among the methylated SA-derivatives

SMILES: O=C(O)c1ccccc1 [BA, benzoate]
- Ki (SfMCT [1]): 431 µM

SMILES: O=C(O)/C=C/c1ccccc1 [CA, trans-cinnamate]
- Ki (SfMCT [1]): 2.5 µM

SMILES: N#CC(C#N)=NNc1cccc(Cl)c1 [CCCP, carbonyl cyanide 3-chlorophenylhydrazone, reference compound]
- effect on [14C]L-lactate transport activity of E. coli MC4100 [2]: reduced the uptake activity almost

SMILES: O=C(O)c1ccc2ccccc2c1 [N2C, 2-naphthoate]
- Ki (SfMCT [1]; [6]): 2.4 µM
- inhibitory effect on L-lactate transport in the screen (SfMCT [1]; [5]): strongest reduction of L-lactate transport among the tested naphthoate derivatives
- effect on [14C]L-lactate transport activity of E. coli MC4100 [2]: no significant reduction
- reduction of L-lactate transport inhibition by the Y331F mutation versus wild type (SfMCT Y331F mutant): ~ 2 fold

SMILES: O=C(O)c1ccccc1O [SA, salicylate]
- Ki (SfMCT [1]): 362 µM
- inhibitory effect on L-lactate transport in the screen (SfMCT [1]; [9]): strongest decrease in L-lactate transport activity
- transport of the radiolabeled compound by SfMCT (SfMCT [3]): does not transport

SMILES: O=C(O)c1ccccc1S [TSA, thiosalicylate]
- transport of the compound by SfMCT (SfMCT [4]): non-transported
